Measured values taken from US6469059B1, “Fungicidal composition and method for disease control of paddy-rice plants” (BASF Aktiengesellschaft, priority 1999, dated 2002).
Read-outs that look alike come from different tables or passages of the source.

Tests used:
Assay type in all cases: in vivo
[1] = test system: Blast (Pyricularia oryzae); settings: granules water-applied 7 days before inoculation
[2] = test system: Helminthosporium leaf spot (Cochliobolus miyabeanus); assay: Preventive effect by application against Helminthosporium leaf spot (foliar spray); settings: foliar spray before inoculation, six-leave-stage rice
[3] = test system: Sheath blight (Rhizoctonia solani); assay: Preventive effect by application against Sheath blight (foliar spray); settings: foliar spray before inoculation, ten-leave-stage rice
Procedure: Preventive Effect by Application Against Sheat Blight (Rhizoctonia solani)
The wettable powders prepared according to the Formulation Examples which were diluted with water to a predetermined concentrations were sprayed to the stems and leaves of ten-leave-stage of rice plant (Kin-maze) cultivated in pots under flooding. After air-drying, the fungous nucleiof Sheath blight (Rhizoctonia solani) was inoculated at the root of the plant. After that, the plant was allowed to stand under humid conditions at 30° C. for one week, and then, the number of the disease lesion was determined to obtain the preventive index according to the criterion of Test Example 1.

[4] = test system: Blast (Pyricularia oryzae); settings: foliar spray before inoculation, rice plant (Kin-maze)
[5] = test system: Blast (Pyricularia oryzae); settings: sprayed one day after inoculation
[6] = test system: Sheath blight (Rhizoctonia solani); assay: Preventive effect by paddy water application against Sheath blight; settings: water-applied 7 days before inoculation
Procedure: Preventive Effect by Paddy Water Application Against Sheath Blight (Rhizoctonia solani)
By using pots of 1/8000 are, the compounds prepared according to the Formulations Examples which were diluted with water to a predetermined concentration were water-applied to ten-leave-stage rice plant (Kin-maze) cultivated under flooding. The treated pots were allowed to stand in a greenhouse for seven days, and the fungus nuclei of Sheath blight (Rhizoctonia solani) was inoculated at the root of the plant. Then, the plant was allowed to stand under humid conditions at 30° C. for one week, and then, the number of the disease lesion was determined to obtain the preventive index according to the criterion of Test Example 1.

## CO/C=C(/C(=O)OC)c1ccccc1Oc1cc(Oc2ccccc2C#N)ncn1 [Compound 13, methyl (E)-2-{2-[6-(2-cyanophenoxy)pyrimidin-4-yloxy]phenyl}-3-methoxy-acrylate]
[1]; 10 g/10a active ingredient
  Preventive index: 3 (Preventive value 60 to 84%)
[2]; 10 ppm active ingredient
  Preventive index: 3 (Preventive value 60 to 84%)
[3]; 10 ppm active ingredient
  Preventive index: 3 (Preventive value 60 to 84%)

## CC(C)Oc1cccc(NC(=O)c2ccccc2C(F)(F)F)c1 [Compound 1, α,α,α-trifluoro-3′-isopropoxy-O-toluanilide]
[1]; 200 g/10a active ingredient
  Preventive index: 0
[4]; 500 ppm active ingredient
  Preventive index: 0
[5]; 200 ppm active ingredient
  Preventive index: 0
[3]; 10 ppm active ingredient
  Preventive index: 3 (Preventive value 60 to 84%)

## CC(NC(=O)C(C#N)C(C)(C)C)c1ccc(Cl)cc1Cl (stereo not shown) [Compound 21, N-[1-(2,4-dichlorophenyl)ethyl]-2-cyano-3,3-dimethylbuthaneamide]
[4]; 5 ppm active ingredient
  Preventive index: 4 (Preventive value 85 to 94%)

## C=CCOC1=NS(=O)(=O)c2ccccc21 [Compound 23, 3-allyloxy-1,2-benzoisothiazole-1,1-dioxide]
[1]; 50 g/10a active ingredient
  Preventive index: 3 (Preventive value 60 to 84%)

## CCOP(=O)(Sc1ccccc1)Sc1ccccc1 [Compound 16, O-ethyl-S,S-diphenyldithiophosphate]
[4]; 50 ppm active ingredient
  Preventive index: 3 (Preventive value 60 to 84%)

## CCCCC(C#N)(Cn1cncn1)c1ccc(Cl)cc1 (stereo not shown) [Compound 9, 2-p-chlorophenyl-2-(1H-1,2,4-triazol-1-ylmethyl)hexanenitrile]
[2]; 10 ppm active ingredient
  Preventive index: 3 (Preventive value 60 to 84%)
[6]; 10 g/10a active ingredient
  Preventive index: 3 (Preventive value 60 to 84%)

## CSC(=O)c1cccc2nnsc12 [Compound 24, S-methyl-benzo(1,2,3)-thiadiazole-7-carbothiolate]
[1]; 50 g/10a active ingredient
  Preventive index: 3 (Preventive value 60 to 84%)

## Cc1nc(C(F)(F)F)c(C(=O)Nc2c(Br)cc(OC(F)(F)F)cc2Br)s1 [Compound 3, N-(2,6-dibromo-4-trifluoromethoxyphenyl)-2-methyl-4-trifluoromethylthiazole-5-carboxamide]
[4]; 500 ppm active ingredient
  Preventive index: 0
[3]; 10 ppm active ingredient
  Preventive index: 3 (Preventive value 60 to 84%)

## OCC1=C[C@H](N[C@H]2C[C@H](CO)[C@@H](O[C@@H]3O[C@H](CO)[C@@H](O)[C@H](O)[C@H]3O)[C@H](O)[C@H]2O)[C@H](O)[C@@H](O)[C@@H]1O [Compound 5, validamycin]
[4]; 500 ppm active ingredient
  Preventive index: 0
[3]; 10 ppm active ingredient
  Preventive index: 3 (Preventive value 60 to 84%)

## O=C1CCc2cccc3c2N1CC3 [Compound 22, 1,2,5,6-tetrahydropyrrolo(3,2,1-i,j)quinolin-4-one]
[1]; 10 g/10a active ingredient
  Preventive index: 4 (Preventive value 85 to 94%)

## Cc1c(Cl)cc(-c2ccc(=O)[nH]n2)cc1Cl [Compound 7, 6-(3,5-dichloro-4-methylphenyl)-3(2H)-pyridazinone]
[3]; 10 ppm active ingredient
  Preventive index: 2

## CC(C)NC(=O)N1CC(=O)N(c2cc(Cl)cc(Cl)c2)C1=O [Compound 8, 3-(3,5-dichlorophenyl)-N-isopropyl-2,4-dioxoimidazolidine-1-carboxamide]
[2]; 10 ppm active ingredient
  Preventive index: 3 (Preventive value 60 to 84%)
[6]; 10 g/10a active ingredient
  Preventive index: 3 (Preventive value 60 to 84%)

## CC(=O)O.CC(=O)O.CC(=O)O.N=C(N)NCCCCCCCCNCCCCCCCCNC(=N)N [Compound 12, 1,1′-iminodi(octamethylene)diguanidinium triacetate]
[2]; 10 ppm active ingredient
  Preventive index: 3 (Preventive value 60 to 84%)
[6]; 10 g/10a active ingredient
  Preventive index: 3 (Preventive value 60 to 84%)

## C[C@H]1O[C@H](O[C@H]2[C@H](O)[C@@H](O)[C@@H](O)[C@H](O)[C@@H]2O)[C@@H](N)C[C@@H]1NC(=N)C(=O)O [Compound 19, kasugamycin]
[5]; 20 ppm active ingredient
  Preventive index: 4 (Preventive value 85 to 94%)

## CC(Oc1ccc(Cl)cc1Cl)C(=O)NC(C)(C#N)C(C)C (stereo not shown) [Compound A, N-(1-cyano-1,2-dimethylpropyl)-2-(2,4-dichlorophenoxy)propanamide]
[1]; 10 g/10a active ingredient
  Preventive index: 3 (Preventive value 60 to 84%)
[2]; 200 ppm active ingredient
  Preventive index: 0
[6]; 200 g/10a active ingredient
  Preventive index: 0
[3]; 200 ppm active ingredient
  Preventive index: 0

## Cc1ccccc1C(=O)Nc1cccc(OC(C)C)c1 [Compound 2, 3′-isopropoxy-2-methylbenzanilide]
[4]; 500 ppm active ingredient
  Preventive index: 0
[3]; 10 ppm active ingredient
  Preventive index: 2

## C/C(=N/Nc1nc(C)cc(C)n1)c1ccccc1C [Compound 11, (Z)-2′-methylacetophenone 4,6-dimethylpyrimidin-2-ylhydrazone]
[2]; 10 ppm active ingredient
  Preventive index: 3 (Preventive value 60 to 84%)
[6]; 10 g/10a active ingredient
  Preventive index: 3 (Preventive value 60 to 84%)

## Cc1nn(C)c(Cl)c1C(=O)Nc1cccc2c1COC2(C)C [Compound 4, 5-chloro-1,3-dimethyl-N-(1,1-dimethyl-2-oxa-4-indanyl)pyrazole-4-carboxamide]
[1]; 200 g/10a active ingredient
  Preventive index: 0

## CNC(=O)/C(=N/OC)c1ccccc1Oc1ccccc1 [Compound 14, 2-methoxyimino-N-methyl-2-(2-phenoxy)phenyl-acetamide]
[1]; 50 g/10a active ingredient
  Preventive index: 3 (Preventive value 60 to 84%)
[2]; 50 ppm active ingredient
  Preventive index: 3 (Preventive value 60 to 84%)
[3]; 50 ppm active ingredient
  Preventive index: 3 (Preventive value 60 to 84%)

## CCCCC(O)(Cn1cncn1)c1ccc(Cl)cc1Cl (racemic) [Compound 10, (RS)-2-(2,4-dichlorophenyl)-1-(1H-1,2,4-triazol-1-yl)hexan-2-ol]
[2]; 10 ppm active ingredient
  Preventive index: 3 (Preventive value 60 to 84%)
[6]; 10 g/10a active ingredient
  Preventive index: 3 (Preventive value 60 to 84%)

## O=C(Nc1ccccc1)N(Cc1ccc(Cl)cc1)C1CCCC1 [Compound 6, 1-(4-chlorobenzyl)-1-cyclopentyl-3-phenylurea]
[4]; 500 ppm active ingredient
  Preventive index: 0
[3]; 10 ppm active ingredient
  Preventive index: 3 (Preventive value 60 to 84%)
